Data published in publication PMC11053136 (Nature Communications, 2024).
Entries after “also recorded” stand apart in the source; their conditions may differ.

Legend:
[1] = molecular target: T1, wild-type PLY (Streptococcus pneumoniae, UniProt Q7ZAK5); assay: cell-based; assay type: cell-based
[2] = molecular target: T2, PLY (Streptococcus pneumoniae, UniProt Q7ZAK5); assay: cell-based; assay type: cell-based
[3] = molecular target: Perfringolysin O (PFO) (Clostridium perfringens, UniProt P0C2E9); assay: cell-based
Chain of Perfringolysin O (PFO) (P0C2E9 29-500 limits assumed): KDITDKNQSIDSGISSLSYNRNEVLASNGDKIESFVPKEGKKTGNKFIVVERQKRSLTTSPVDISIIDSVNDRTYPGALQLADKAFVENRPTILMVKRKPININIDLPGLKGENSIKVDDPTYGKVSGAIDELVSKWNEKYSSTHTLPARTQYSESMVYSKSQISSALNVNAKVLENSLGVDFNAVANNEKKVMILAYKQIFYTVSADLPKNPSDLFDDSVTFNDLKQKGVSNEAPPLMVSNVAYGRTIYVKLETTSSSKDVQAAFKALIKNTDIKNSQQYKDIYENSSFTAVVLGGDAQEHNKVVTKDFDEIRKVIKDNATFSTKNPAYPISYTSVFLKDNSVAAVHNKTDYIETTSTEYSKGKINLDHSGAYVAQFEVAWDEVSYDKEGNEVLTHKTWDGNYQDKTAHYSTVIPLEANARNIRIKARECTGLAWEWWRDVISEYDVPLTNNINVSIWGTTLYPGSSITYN

[4] = molecular target: SARS-CoV2 main protease (Severe acute respiratory syndrome coronavirus 2, UniProt P0DTD1); assay type: biochemical
[5] = test system: Streptococcus pneumoniae (S.pn.) D39Δcps; assay type: cell-based
[6] = molecular target: T2, PLY
[7] = molecular target: T1, wild-type PLY; assay: biochemical; assay type: binding
[8] = molecular target: perforin (Homo sapiens, UniProt P14222); assay type: cell-based
Chain of perforin (P14222 22-555): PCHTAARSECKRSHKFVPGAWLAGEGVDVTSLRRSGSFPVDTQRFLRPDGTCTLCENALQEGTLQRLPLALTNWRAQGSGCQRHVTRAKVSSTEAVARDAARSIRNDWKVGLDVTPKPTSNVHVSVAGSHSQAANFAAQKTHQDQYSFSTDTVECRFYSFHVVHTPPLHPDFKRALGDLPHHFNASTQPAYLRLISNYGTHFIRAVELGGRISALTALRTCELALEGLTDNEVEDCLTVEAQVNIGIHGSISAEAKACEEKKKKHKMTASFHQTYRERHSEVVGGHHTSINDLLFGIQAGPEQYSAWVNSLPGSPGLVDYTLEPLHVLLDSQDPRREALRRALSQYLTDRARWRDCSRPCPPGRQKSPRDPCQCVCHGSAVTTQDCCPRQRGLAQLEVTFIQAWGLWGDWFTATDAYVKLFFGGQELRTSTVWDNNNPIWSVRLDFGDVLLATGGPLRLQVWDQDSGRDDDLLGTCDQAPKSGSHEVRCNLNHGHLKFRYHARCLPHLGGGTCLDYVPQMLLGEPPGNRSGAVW

[9] = molecular target: protein tyrosine phosphatase PTP1B (Homo sapiens, UniProt P18031); assay type: biochemical
Chain of protein tyrosine phosphatase PTP1B (P18031 whole entry): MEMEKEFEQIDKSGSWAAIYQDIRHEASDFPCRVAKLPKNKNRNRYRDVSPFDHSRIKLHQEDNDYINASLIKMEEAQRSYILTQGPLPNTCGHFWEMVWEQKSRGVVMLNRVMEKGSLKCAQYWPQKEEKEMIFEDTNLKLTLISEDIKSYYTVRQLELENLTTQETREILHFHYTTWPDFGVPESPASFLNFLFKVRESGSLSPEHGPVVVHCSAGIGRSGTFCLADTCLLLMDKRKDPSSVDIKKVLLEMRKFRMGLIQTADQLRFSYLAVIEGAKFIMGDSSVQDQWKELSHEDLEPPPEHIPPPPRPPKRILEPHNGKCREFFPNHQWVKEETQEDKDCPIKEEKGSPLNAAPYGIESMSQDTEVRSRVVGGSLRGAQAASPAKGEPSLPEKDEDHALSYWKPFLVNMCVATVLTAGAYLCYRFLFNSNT

[10] = test system: K562 cells; settings: 6 µM

T1 sequence (Q7ZAK5 whole entry, looked up): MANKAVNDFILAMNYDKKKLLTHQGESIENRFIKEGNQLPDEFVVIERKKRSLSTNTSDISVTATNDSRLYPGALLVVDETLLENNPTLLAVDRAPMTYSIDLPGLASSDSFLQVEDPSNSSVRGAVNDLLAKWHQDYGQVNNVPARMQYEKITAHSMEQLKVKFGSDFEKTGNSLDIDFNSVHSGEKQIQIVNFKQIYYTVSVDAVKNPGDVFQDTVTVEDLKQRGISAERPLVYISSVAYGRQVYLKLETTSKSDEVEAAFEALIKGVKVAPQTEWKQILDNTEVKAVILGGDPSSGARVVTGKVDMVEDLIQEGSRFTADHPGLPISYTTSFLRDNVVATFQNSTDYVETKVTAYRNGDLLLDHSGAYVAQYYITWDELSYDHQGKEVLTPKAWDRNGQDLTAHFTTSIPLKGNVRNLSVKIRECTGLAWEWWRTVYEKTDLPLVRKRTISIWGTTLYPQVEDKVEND
T2 sequence (Q7ZAK5 whole entry, looked up): as above

Question: With COc1ccc(C=C2C(=O)NC(=O)NC2=O)cc1COc1ccc(F)cc1F [PB-1] as the compound, how does the IC50 [1] read?
Answer: 38 ± 6 µM

Question: And the “Inhibition of hemoglobin release, virtual hit screen” value [1]?
Answer: actively hindering hemoglobin release at all three concentrations; also recorded: displayed inhibition

Question: What about the “Inhibition of PLY-induced cellular damage, LDH assay (qualitative)” value [2] of the same compound?
Answer: significant concentration-dependent inhibition of PLY

Question: And the IC50 [3]?
Answer: 4.6 µM

Question: With Cc1cc(C)cc(N2C(=O)CC(=O)NC2=O)c1 [PB-2.3] as the compound, how does the “IC50 (95% CI), inhibition of hemolysis by wild-type PLY” value [1] read?
Answer: Inactive

Question: And the “PLY inhibition in the hemolysis assay (qualitative)” value [1]?
Answer: no inhibitors; also recorded: did not inhibit PLY alone

Question: With O=Cc1ccc(-c2ccc(Cl)cc2Cl)o1 [PB-3.1] as the compound, how does the “PLY inhibition in the hemolysis assay (qualitative)” value [1] read?
Answer: no inhibitors; also recorded: did not inhibit PLY alone

Question: With Cc1cc(C)cc(N2C(=O)NC(=O)/C(=C\c3ccc(-c4ccc(Cl)cc4Cl)o3)C2=O)c1 [PB-3] as the compound, how does the “Inhibition of SARS-CoV2 main protease” value [4] read?
Answer: inactive; also recorded: without detecting inhibition

Question: What about the “Survival of A549 cells infected with D39Δcps” value [5] of the same compound?
Answer: almost entirely survived

Question: What about the “duration of activity in the cellular infection assays” value [5] of the same compound?
Answer: about 4 h

Question: What about the “Effect of inhibitor alone on A549 cells” value [6] of the same compound?
Answer: harmless to cells

Question: What about the “Protection of A549 cells from PLY (microscopy)” value [6] of the same compound?
Answer: effectively protected cells from PLY-associated cellular damage

Question: And the Kd [7]?
Answer: 0.256 µM

Question: And the residence time [7]?
Answer: 36.2 min

Question: What about the koff ([7]; read-out: koff (off-rate)) of the same compound?
Answer: 0.00046 s⁻¹

Question: What about the kon ([7]; read-out: kon (on-rate)) of the same compound?
Answer: 1800 M⁻¹ s⁻¹

Question: What about the “Inhibition of PLY-induced cellular damage, LDH assay (qualitative)” value [2] of the same compound?
Answer: significant concentration-dependent inhibition of PLY

Question: What about the “prevented cellular damage (LDH release)” value [2] of the same compound?
Answer: more than 95%

Question: And the inhibition at 1 µM ([2]; A549, read-out: inhibition of PLY in cellular experiments at 1 µM)?
Answer: ~20%

Question: What about the inhibition at 6 µM ([2]; A549, read-out: inhibition of PLY in cellular experiments at 6 µM, 6 µM, after 24 h) of the same compound?
Answer: > 90%

Question: What about the “Inhibition of lysis of K562 cells by NK cells” value [8] of the same compound?
Answer: did not inhibit

Question: And the “reduction of median target cell lysis compared to DMSO control” value [8]?
Answer: 15.6%

Question: And the “Inhibition of PTP1B” value [9]?
Answer: inactive; also recorded: without detecting inhibition

Question: And the “Cytotoxicity for K562 cells alone” value [10]?
Answer: not cytotoxic
